# Assay results taken from article PMC6759763, “Porphyromonas gingivalis Tyrosine Phosphatase Php1 Promotes Community Development and Pathogenicity” (mBio, 2019).
# Legend:
# FPtk1 = target: T1, FPtk1 (Porphyromonas gingivalis, UniProt B2RKZ8); details: 5 mM ATP, 1 h; Php1 as phosphoacceptor
# T1 construct: gene PGN_1524
# Php1 [1] = target: T2, Php1 (Porphyromonas gingivalis, UniProt B2RKZ9); design: gene PGN_1525; details: 50 mM pNPP, pH 8.0, 37 °C, 1 mM MnCl2; also inhibits with phosphotyrosine as substrate
# T2 sequence (B2RKZ9 entry or part of it): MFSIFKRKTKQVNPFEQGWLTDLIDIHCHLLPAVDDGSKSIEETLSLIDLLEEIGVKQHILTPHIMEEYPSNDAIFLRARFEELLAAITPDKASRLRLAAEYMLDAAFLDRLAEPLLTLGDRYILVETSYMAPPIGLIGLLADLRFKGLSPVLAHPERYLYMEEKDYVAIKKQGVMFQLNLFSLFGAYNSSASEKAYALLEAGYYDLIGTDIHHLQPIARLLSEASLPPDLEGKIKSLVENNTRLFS
# Ltp1 = target: T3, Ltp1 (Porphyromonas gingivalis, UniProt B2RI15); test: phosphatase inhibition, pNPP hydrolysis; format: biochemical; details: pNPP as substrate; DMSO vehicle
# T3 construct: gene PGN_0491
# T3 sequence (B2RI15 entry or part of it): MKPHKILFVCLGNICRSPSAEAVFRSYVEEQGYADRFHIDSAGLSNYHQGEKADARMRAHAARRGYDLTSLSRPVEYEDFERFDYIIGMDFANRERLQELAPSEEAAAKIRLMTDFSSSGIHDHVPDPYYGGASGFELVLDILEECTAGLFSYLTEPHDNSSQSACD
# Php1 [2] = target: T2, Php1; test: p-nitrophenol release ([…] nm); format: biochemical; design: gene PGN_1525; php1 coding region, GST-tagged (pGEX-4T-1) or His-tagged (pLATE51), E. coli BL21(DE3) Star; 247 residues, 28 kDa; details: 50 mM pNPP, pH 8.0, 37 °C, 1 mM MnCl2
# Php1 [3] = target: T2, Php1; design: gene PGN_1525; details: 200 μM phosphotyrosine, pH 8.0, 37 °C, 1 mM MnCl2
# T1 sequence (B2RKZ8 entry or part of it): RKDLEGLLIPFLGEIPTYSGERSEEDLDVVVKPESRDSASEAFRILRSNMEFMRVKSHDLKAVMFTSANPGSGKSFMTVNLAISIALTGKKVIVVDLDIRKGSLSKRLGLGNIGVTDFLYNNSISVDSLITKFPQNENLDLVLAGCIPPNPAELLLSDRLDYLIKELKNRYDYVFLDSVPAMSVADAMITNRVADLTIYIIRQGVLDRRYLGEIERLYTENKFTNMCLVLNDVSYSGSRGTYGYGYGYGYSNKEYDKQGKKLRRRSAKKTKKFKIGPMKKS
smiles,measurement,setting,value
Nc1ncnc2c1ncn2[C@@H]1O[C@H](COP(=O)(O)OP(=O)(O)OP(=O)(O)O)[C@@H](O)[C@H]1O [ATP],anti-phosphotyrosine immunoblot of Php1 phosphorylation,FPtk1,Tyrosine phosphorylation of Php1 increased after incubation with FPtk1 in the presence of ATP
"[O]=[V]([OH])([OH])[OH] [Na3VO4, sodium orthovanadate]",inhibition,Php1 [1],(pNPP) was inhibited by the tyrosine phosphatase inhibitor Na3VO4
"Nc1ccc(C(=O)O)cc1 [pABA, para-amino benzoic acid]",% activity relative to no inhibitor,Ltp1,Both H2O2 and pABA inhibited Ltp1 but not Php1
"O=[N+]([O-])c1ccc(OP(=O)(O)O)cc1 [pNPP, p-nitrophenyl phosphate]",p-nitrophenol release (405 nm),Php1 [2],Php1 phosphatase activity on p-nitrophenyl phosphate (pNPP)
N[C@@H](Cc1ccc(OP(=O)(O)O)cc1)C(=O)O [phosphotyrosine],malachite green phosphate release,Php1 [3],Php1 was most active against phosphotyrosine
